The results in this text go back to patent US20180071284A1, “PREVENTING OR TREATING VIRAL INFECTION BY INHIBITION OF THE HISTONE METHYLTRANSFERASE EZH1 OR EZH2” (The United States of America, as represented by the …, priority 2015, published 2018).

Experiment [1] concerns HSV-1. Kind of experiment: HSV-1 cellular and nuclear entry (viral DNA in total and nuclear fractions of HFF cells). The class given is cell-based, herpes simplex virus 1 (HSV-1). Conditions: compound 1 35 μM, compound 4 30 μM, 5-hrs pretreatment, HSV-1 2.0 PFU per cell 1.5-hrs. As to the method: HFF cells were treated with the EZH1/2 catalytic inhibitor compound 1 (35 μM), compound 4 (30 μM), or DMSO (vehicle) for 5-hrs. The HFF cells were then infected with HSV-1 (2.0 PFU per cell) for 1.5-hrs in the presence of the inhibitors or DMSO (vehicle). The levels of HSV viral DNA isolated from total and nuclear cellular fractions are expressed as ratios relative to DMSO (vehicle).

The test system of experiment [2] is HSV-1. Kind of experiment: HSV-1 viral IE mRNA levels in infected Vero (IFN-β null, IRF3 deficient) cells. The class given is cell-based, herpes simplex virus 1 (HSV-1). Conditions: 5-hrs pretreatment, HSV-1 2.0 PFU per cell. As to the method: HFF (wild-type) and Vero (IFN-β null, IRF3 deficient) cells were treated with the indicated concentration of EZH1/2 catalytic inhibitor (compound 1 or 4) or DMSO (vehicle) for 5-hrs. HFF and Vero cells were then infected with HSV-1 (2.0 PFU per cell) for 1.5-hrs in the presence of inhibitor or DMSO. The levels of HSV viral IE (ICP0, ICP4, ICP22, and ICP27) and cellular control (SP1 and TBP) mRNAs are expressed relative to cells treated with DMSO (vehicle).

For experiment [3], the system named is HSV-1. The experiment in a line: Mouse trigeminal ganglia explant reactivation model, viral yield titrated on Vero cells. The class given is cell-based, herpes simplex virus 1 (HSV-1). Conditions: explant 48-hrs; compound 1 35 μM, compound 3 30 μM, compound 4 30 μM. As to the method:
Trigeminal ganglia from HSV-1 latently infected mice were bisected. Half were explanted in media with control DMSO (vehicle), and the other half were explanted in media with ACV (100 μM), ML324 (50 μM), compound 1 (35 μM), compound 3 (30 μM), or compound 4 (30 μM) for 48-hrs to induce viral reactivation. Viral yields were determined by titrating on Vero cells. Each point represents the titer of one explanted trigeminal ganglia.

Experiment [4] concerns cytokines, chemokines, and adhesion proteins involved in innate signaling. Kind of experiment: RNA-seq analysis of explanted trigeminal ganglia from HSV-1 latently infected mice. The class given is cell-based. Conditions: 30 μM, 12 hrs. As to the method:
Trigeminal ganglia from HSV-1 latently infected mice were explanted in media with control DMSO (vehicle) or in media with compound 4 (30 μM) for 12 hrs. Total cellular RNA was isolated and RNA-seq analysis identified the induction of cytokines, chemokines, and adhesion proteins involved in innate signaling and recruitment of immune effector cells. The results are in Table 1 below, where changes in gene expression are expressed as ratios of compound 4 relative to vehicle.

Experiment [5] has as its system HSV-1. The experiment in a line: Removal of inhibitors prior to HSV-1 infection of HFF cells (mRNA levels). Format: cell-based, herpes simplex virus 1 (HSV-1). Conditions: washed, then infected. As for the experimental part: HFF cells were treated with inhibitors targeting the catalytic SET domain (compound 1, 35 μM: EZH2; compound 2, 15 μM: EZH2 and EZH1; compound 4, 30 μM: EZH2), EED-EZH2 and EED-EZH1 (compound 3, 30 μM), or DMSO (control) for 5-hrs. Cells were then washed with phosphate buffered saline (PBS) and replaced with media with no inhibitors for the indicated time in FIGS. 21-24 prior to infection with HSV-1 (2.0 PFU per cell) for 1.5-hrs in the absence of inhibitors.

The next experiment has as its system neutrophil (Ly6G). The experiment in a line: Neutrophil recruitment to the site of HSV infection in mouse eyes. Conditions: topical to the eyes, 30 μM twice daily, day 5. Format: in vivo, Balb/c mice. As for the experimental part:
The eyes of Balb/c mice were scarified and mock or infected with 2×10^5 pfu of HSV-1 (strain F) per eye. Beginning on day 0.5, the eyes of mice were treated either with EZH1/2 inhibitor (compound 4: 30 μM), acyclovir (ACV: 30 μM), or vehicle control twice daily. On day 5, the eyes were fixed in paraformaldehyde and tissue sections were co-stained with anti-HSV-1, anti-Ly6G (neutrophil), and DAPI.

As to `CC[C@H](C)n1cc(C)c2c(C(=O)NCc3c(C)cc(C)[nH]c3=O)cc(-c3ccc(N4CCNCC4)nc3)cc21` [compound 4, GSK126], the “HSV-1 viral entry (total and nuclear)” value in the experiment with HSV-1 [1] is reported as “no impact”. The “antiviral activity (HSV IE mRNA) in Vero cells as compared to HFF (wild-type) cells” value with HSV-1 [2] is recorded as “lack of antiviral activity”. For the same compound, the “HSV reactivation from latency (viral yield per explanted trigeminal ganglia)” value in the experiment with HSV-1 [3] is “block HSV reactivation from latency”. Further, the “genes induced >2 fold that are co-regulated by IFN (Interferome), ganglia explants” value in experiment [4] is on record as 33 genes. In addition, the “share of genes induced >2 fold that are co-regulated by IFN (Interferome), ganglia explants” value in experiment [4] was found to be 69%. The “Fold Change (Cmpd. 4 relative to vehicle)” value is recorded as 2.23 in experiment [4] (Gene CCL2 (Chemokines)); 6.30 in experiment [4] (Gene CXCL1 (Chemokines)); 5.11 in experiment [4] (Gene CXCL2 (Chemokines)); 2.68 in experiment [4] (Gene CXCL3 (Chemokines)); 3.78 in experiment [4] (Gene CXCL5 (Chemokines)); 6.16 in experiment [4] (Gene G-CSF (Cytokines)). Further, the “Fold Change (Cmpd. 4 relative to vehicle)” value in experiment [4] (Gene GM-CSF (Cytokines)) is 5.51; in experiment [4] (Gene ICAM1 (Adhesion)), 2.51; in experiment [4] (Gene IL6 (Cytokines)), 3.61; in experiment [4] (Gene IL11 (Cytokines)), 2.16; in experiment [4] (Gene LIF (Cytokines)), 2.66; in experiment [4] (Gene SELE (Adhesion)), 3.86. Also, the “Fold Change (Cmpd. 4 relative to vehicle)” value in experiment [4] (Gene SELP (Adhesion)) was 3.16; in experiment [4] (Gene VEGF-c (Cytokines)) it was 2.10. Also, in the experiment with HSV-1 [5] (5-hrs treatment (compound 1 35 μM, 2 15 μM, 3 30 μM, 4 30 μM)), the “HSV IE expression after removal of compound prior to infection” value is listed as “recovery of HSV IE expression”. The “IL6 stimulation after removal of compound prior to infection” value with HSV-1 [5] (5-hrs treatment) is “decrease in IL6 stimulation”. Also, the “neutrophil recruitment to the site of HSV infection” value in the experiment on neutrophil (Ly6G) was “Recruitment/infiltration of neutrophils”.
